Experimental data reported in US20120083522A1, “MODULATION OF INFLAMMATORY RESPONSES BY FACTOR XI” (Isis Pharmaceuitcals, inc., priority 2009, published 2012).
In the oligonucleotide strings, read from the 5' end, every base follows the letter of its sugar. An asterisk marks phosphorothioate; unmarked linkages are phosphodiester. Other units and linkages are bracketed, terminal groups are in braces. A string of capitals states the bases alone. e = 2'-O-(2-methoxyethyl) (MOE); [5mC] = 5-methylcytosine; d = 2'-deoxy (DNA)

What was measured:
human Factor XI mRNA = test: Antisense inhibition in HepG2 cells by microwalk gapmers, 8,000 nM, electroporation (Example 14); assay type: cell-based; settings: HepG2 cells, 8,000 nM
Method: These microwalk gapmers were tested in vitro. Cultured HepG2 cells at a density of 20,000 cells per well were transfected using electroporation with 8,000 nM antisense oligonucleotide. After a treatment period of approximately 24 hours, RNA was isolated from the cells and Factor XI mRNA levels were measured by quantitative real-time PCR. Factor XI mRNA levels were adjusted according to total RNA content, as measured by RIBOGREEN. Results are presented as percent inhibition of Factor XI, relative to untreated control cells.
The chimeric antisense oligonucleotides in Table 51 were designed as 5-10-5 MOE, 5-8-5 and 6-8-6 MOE gapmers. The first two listed gapmers in Table 51 are the original gapmers (ISIS 416850 and ISIS 416858) from which ISIS 445493-445543 were designed via microwalk, and are designated by an asterisk. The 5-10-5 gapmers are 20 nucleotides in length, wherein the central gap segment is comprised of ten 2′-deoxynucleotides and is flanked on both sides (in the 5′ and 3′ directions) by wings comprising five nucleotides each. The 5-8-5 gapmers are 18 nucleotides in length, wherein the central gap segment is comprised of eight 2′-deoxynucleotides and is flanked on both sides (in the 5′ and 3′ directions) by wings comprising five nucleotides each. The 6-8-6 gapmers are 20 nucleotides in length, wherein the central gap segment is comprised of eight 2′-deoxynucleotides and is flanked on both sides (in the 5′ and 3′ directions) by wings comprising six nucleotides each. For each of the motifs (5-10-5, 5-8-5 and 6-8-6), each nucleotide in the 5′ wing segment and each nucleotide in the 3′ wing segment has a 2′-MOE modification. The internucleoside linkages throughout each gapmer are phosphorothioate (P═S) linkages. All cytidine residues throughout each gapmer are 5-methylcytidines. “Human Target start site” indicates the 5′-most nucleotide to which the gapmer is targeted in the human sequence. “Human Target stop site” indicates the 3′-most nucleotide to which the gapmer is targeted in the human sequence. Each gapmer listed in Table 51 is targeted to SEQ ID NO: 1 (GENBANK Accession No. NM_000128.3). Each gapmer is Table 51 is also fully cross-reactive with the rhesus monkey Factor XI gene sequence, designated herein as SEQ ID NO: 274 (exons 1-15 GENBANK Accession No. NW—001118167.1). ‘Rhesus monkey start site’ indicates the 5′-most nucleotide to which the gapmer is targeted in the rhesus monkey sequence. ‘Rhesus monkey stop site’ indicates the 3′-most nucleotide to which the gapmer is targeted to the rhesus monkey sequence.

Factor XI protein = test: Cynomolgus monkeys: plasma Factor XI protein ELISA (Example 29); assay type: in vivo; settings: escalating doses 5, 10, 25 mg/kg s.c.
Method: (§1) Groups, each consisting of two male and three female monkeys, were injected subcutaneously with ISIS 416838, ISIS 416850, ISIS 416858, ISIS 416864, or ISIS 417002 in escalating doses. Antisense oligonucleotide was administered to the monkeys at 5 mg/kg three times per a week for week 1; 5 mg/kg twice per week for weeks 2 and 3; 10 mg/kg three times per week for week 4; 10 mg/kg twice per week for weeks 5 and 6; 25 mg/kg three times per week for week 7; and 25 mg/kg twice per week for weeks 8, 9, 10, 11, and 12. One control group, consisting of two male and three female monkeys, was injected subcutaneously with PBS according to the same dosing regimen. An additional experimental group, consisting of two male and three female monkeys, was injected subcutaneously with ISIS 416850 in a chronic, lower dose regimen. Antisense oligonucleotide was administered to the monkeys at 5 mg/kg three times per week for week 1; 5 mg/kg twice per week for week 2 and 3; 10 mg/kg three times per week for week 4; and 10 mg/kg twice per week for weeks 5 to 12. Body weights were measured weekly. Blood samples were collected 14 days and 5 days before the start of treatment and subsequently once per week for Factor XI protein activity analysis in plasma and measurement of various hematologic factors. On day 85, the monkeys were euthanized by exsanguination while under deep anesthesia, and organs harvested for further analysis.
Plasma samples from all monkey groups taken on different days were analyzed by a sandwich-style ELISA assay (Affinity Biologicals Inc.) using an affinity-purified polyclonal anti-Factor XI antibody as the capture antibody and a peroxidase-conjugated polyclonal anti-Factor XI antibody as the detecting antibody. Monkey plasma was diluted 1:50 for the assay. Peroxidase activity was expressed by incubation with the substrate o-phenylenediamine. The color produced was quantified using a microplate reader at 490 nm and was considered to be proportional to the concentration of Factor XI in the samples.
The results are presented in Table 122, expressed as percentage reduction relative to that of the PBS control.

[1] = Cynomolgus monkeys: body and organ weights (Example 29); assay type: in vivo; settings: for Body weight: escalating doses 5, 10, 25 mg/kg s.c.
Method: as §1
Body weights were taken once weekly throughout the dosing regimen. […] Organ weights were taken after the animals were euthanized and livers, kidneys and spleens were harvested and weighed. […] The ISIS oligonucleotide, ISIS 416850, given with the chronic dose regimen is distinguished from the other oligonucleotides with an asterisk (*).

[2] = Cynomolgus monkeys: hematology assays (Example 29); assay type: in vivo
Method: as §1
The ISIS oligonucleotide, ISIS 416850, given with the chronic dose regimen is distinguished from the other oligonucleotides with an asterisk (*).

Substance: 445493 (antisense eA*e[5mC]*eA*eG*eT*eT*dT*d[5mC]*dT*dG*dG*d[5mC]*dA*dG*eG*e[5mC]*e[5mC]*eT*e[5mC]*eG) [compound 445493]
- Percent inhibition of human Factor XI mRNA levels (human Factor XI mRNA): 69%

Substance: 445494 (antisense CACAGTTTCTGGCAGGCCTC; 6-8-6 gapmer chemistry, chemistry not fully specified) [compound 445494]
- Percent inhibition of human Factor XI mRNA levels (human Factor XI mRNA): 85%

Substance: 445495 (antisense GCACAGTTTCTGGCAGGCCT; 6-8-6 gapmer chemistry, chemistry not fully specified) [compound 445495]
- Percent inhibition of human Factor XI mRNA levels (human Factor XI mRNA): 89%

Substance: 445496 (antisense TGCACAGTTTCTGGCAGGCC; 6-8-6 gapmer chemistry, chemistry not fully specified) [compound 445496]
- Percent inhibition of human Factor XI mRNA levels (human Factor XI mRNA): 87%

Substance: 445497 (antisense GTGCACAGTTTCTGGCAGGC; 6-8-6 gapmer chemistry, chemistry not fully specified) [compound 445497]
- Percent inhibition of human Factor XI mRNA levels (human Factor XI mRNA): 81%

Substance: 445499 (antisense TGGTGCACAGTTTCTGGCAG; 6-8-6 gapmer chemistry, chemistry not fully specified) [compound 445499]
- Percent inhibition of human Factor XI mRNA levels (human Factor XI mRNA): 75%

Substance: 445500 (antisense TTGGTGCACAGTTTCTGGCA; 6-8-6 gapmer chemistry, chemistry not fully specified) [compound 445500]
- Percent inhibition of human Factor XI mRNA levels (human Factor XI mRNA): 81%

Substance: 445501 (antisense ATTGGTGCACAGTTTCTGGC; 6-8-6 gapmer chemistry, chemistry not fully specified) [compound 445501]
- Percent inhibition of human Factor XI mRNA levels (human Factor XI mRNA): 83%

Substance: 445502 (antisense e[5mC]*eA*eT*eT*eG*eG*dT*dG*d[5mC]*dA*d[5mC]*dA*dG*dT*eT*eT*e[5mC]*eT*eG*eG) [compound 445502]
- Percent inhibition of human Factor XI mRNA levels (human Factor XI mRNA): 83%

Substance: 445506 (antisense eA*e[5mC]*eG*eG*e[5mC]*eA*dT*dT*dG*dG*dT*dG*d[5mC]*dA*e[5mC]*eA*eG*eT*eT*eT) [compound 445506]
- Percent inhibition of human Factor XI mRNA levels (human Factor XI mRNA): 86%

Substance: ISIS 417002: gapmer of Table 8 (antisense eG*eG*dT*dG*d[5mC]*dA*d[5mC]*dA*dG*dT*dT*dT*d[5mC]*dT*dG*eG*e[5mC]*eA*eG*eG)
- Inhibition of Factor XI protein relative to the PBS control (Factor XI protein; day 8): 0%
- Inhibition of Factor XI protein relative to the PBS control (Factor XI protein; day 15): 4%
- Inhibition of Factor XI protein relative to the PBS control (Factor XI protein; day 22): 2%
- Inhibition of Factor XI protein relative to the PBS control (Factor XI protein; day 29): 8%
- Inhibition of Factor XI protein relative to the PBS control (Factor XI protein; day 36): 8%
- Inhibition of Factor XI protein relative to the PBS control (Factor XI protein; day 43): 9%
- Inhibition of Factor XI protein relative to the PBS control (Factor XI protein; day 50): 13%
- Inhibition of Factor XI protein relative to the PBS control (Factor XI protein; day 57): 24%
- Inhibition of Factor XI protein relative to the PBS control (Factor XI protein; day 64): 26%
- Inhibition of Factor XI protein relative to the PBS control (Factor XI protein; day 71): 30%
- Inhibition of Factor XI protein relative to the PBS control (Factor XI protein; day 78): 22%
- Inhibition of Factor XI protein relative to the PBS control (Factor XI protein; day 85): 23%
- Inhibition of Factor XI protein relative to the PBS control (Factor XI protein; day −5 (before treatment)): 0%
- Inhibition of Factor XI protein relative to the PBS control (Factor XI protein; day −14 (before treatment)): 0%
- Kidney weight ([1]; after euthanasia): 15 g
- Liver weight ([1]; after euthanasia): 51 g
- Spleen weight ([1]; after euthanasia): 5 g
- Body weight ([1]; day 1): 2640 g
- Body weight ([1]; day 8): 2523 g
- Body weight ([1]; day 15): 2571 g
- Body weight ([1]; day 22): 2617 g
- Body weight ([1]; day 29): 2622 g
- Body weight ([1]; day 36): 2631 g
- Body weight ([1]; day 43): 2630 g
- Body weight ([1]; day 50): 2652 g
- Body weight ([1]; day 57): 2654 g
- Body weight ([1]; day 64): 2598 g
- Body weight ([1]; day 71): 2727 g
- Body weight ([1]; day 78): 2570 g
- platelet count ([2]; day 8): 435000 µL⁻¹
- platelet count ([2]; day 15): 410000 µL⁻¹
- platelet count ([2]; day 22): 377000 µL⁻¹
- platelet count ([2]; day 29): 410000 µL⁻¹
- platelet count ([2]; day 36): 415000 µL⁻¹
- platelet count ([2]; day 43): 393000 µL⁻¹
- platelet count ([2]; day 50): 389000 µL⁻¹
- platelet count ([2]; day 57): 403000 µL⁻¹
- platelet count ([2]; day 64): 436000 µL⁻¹
- platelet count ([2]; day 71): 490000 µL⁻¹
- platelet count ([2]; day 78): 432000 µL⁻¹
- platelet count ([2]; day 85): 418000 µL⁻¹
- platelet count ([2]; day −5): 466000 µL⁻¹
- platelet count ([2]; day −14): 442000 µL⁻¹
